# According to patent US10624917B2, “Compositions and methods useful for treating or preventing liver diseases or disorders, and promoting weight loss” (YALE UNIVERSITY, priority 2014, dated 2020):
# Where no end group is shown, it is not given here.
# B1: adenosine deaminase: Adenosine deaminase obtained from Worthington Biochemical corporation (protein, UniProt P56658 2-363, looked up)
# Adenosine deaminase: AQTPAFNKPKVELHVHLDGAIKPETILYYGRKRGIALPADTPEELQNIIGMDKPLSLPEFLAKFDYYMPAIAGCREAVKRIAYEFVEMKAKDGVVYVEVRYSPHLLANSKVEPIPWNQAEGDLTPDEVVSLVNQGLQEGERDFGVKVRSILCCMRHQPSWSSEVVELCKKYREQTVVAIDLAGDETIEGSSLFPGHVKAYAEAVKSGVHRTVHAGEVGSANVVKEAVDTLKTERLGHGYHTLEDATLYNRLRQENMHFEVCPWSSYLTGAWKPDTEHPVVRFKNDQVNYSLNTDDPLIFKSTLDTDYQMTKNEMGFTEEEFKRLNINAAKSSFLPEDEKKELLDLLYKAYGMPSPASAEQCL
# Experiments:
# [1] = tested on: active caspase-1 / pro-IL-1β in PECs; experiment: Western blot of caspase-1 and pro-IL-1β in PECs; assay type: cell-based, mouse; settings: for CGS21680 induced increase in LPS/ATP induced active caspase-1: LPS/ATP + CGS21680 with inhibitor; for active (cleaved) caspase-1: in response to LPS/ATP
# Protocol: FIGS. 2A-2H illustrate the finding that adenosine mediates increase in IL-1β via the A2A receptor and amplifies signal 1 and signal 2 pathways. FIG. 2A: LPS primed PECs were treated with NECA (10 μM) in the presence or absence of […] different adenosine receptor antagonists for A1 (DPCPX, 10 nM), A2A (ZM 241385, 10 μM), A2B (MRS1706, 10 nM), A3 (MRS1523, 5 μM), or their combinations for 1 hour, and pulsed with ATP for 20 min. FIGS. 2A-2B: A2A receptor specific agonist (CGS21680) and antagonist ZM 241385 increase and block IL-1β production respectively. […] FIG. 2D: PEC's from A2A receptor deficient cells have low IL-1β production, which is not increased by NECA and CGS 21680. FIG. 2E: CGS21680 increases induction of Il1b mRNA expression, and this was decreased in A2A receptor deficient cells. FIG. 2F: Loss of the A2A receptor in macrophages results in much lower levels of Il1b protein A expression in response to LPS. FIG. 2G: CGS21680 and […] increases and decreases production of cleaved caspase-1, respectively. FIG. 2H: The production of cleaved caspase-1 is decreased in A2A receptor deficient macrophages. Data are expressed as the mean±SD from at least three independent experiments Immunoblots shown are representative results from at least three independent experiments. p<0.05 determined by Student's t-test.
# (§1) FIGS. 3A-3I illustrate the finding that adenosine supersedes LPS induced tolerance and increases IL-1β production by upregulating transcription of pro-IL-1β via cAMP-PKA pathway. PECs were used in all of the following experiments. FIG. 3A: Primed (pri) with LPS (100 ng/ml) for 16 hours followed by stimulation (stim) with LPS (100 ng/ml), or NECA (10 μM) or CGS21680 (10 μM) in the presence or absence of LPS (100 ng/ml) for 6 hours. FIG. 3B: Treated with forskolin for 6 hours as indicated doses with and without LPS priming FIG. 3C: Treated with or without NECA (10 μM), CGS21680 (10 μM) or db-cAMP (200 μM) for 6 hours. FIG. 3D: LPS primed and treated with NECA or CGS21680 in the presence and absence of SQ22536, H89 and PKi. FIG. 3E: Primed with LPS for 16 hours and treated with ATP for 20 min, followed by CGS 21680 in the presence or absence of the adenylyl cyclase and PKA inhibitors SQ22536 and H-89. FIG. 3F: Primed with LPS and treated with or without NECA (10 μM) or db-cAMP (200 μM) for 6 hours. FIG. 3G: Treated with or without CGS21680 (10 μM) for 3 hours, and transcription was stopped by adding […] actinomycin D, and RNA samples collected at indicated times-points. FIG. 3H: LPS primed PECs obtained from wild type or A2AR-cKO mice were stimulated with NECA (10 μM) for 6 hours. The cells were harvested and RNA isolated after each treatment and the gene expression of Il1b and other genes as indicated quantified by real-time PCR using specific primers. FIG. 3I: Primed with LPS for 16 hours and treated with ATP for 20 min, followed by CGS 21680 in the presence or absence of SQ22536 or H-89 Immunoblot analysis of the proIL-1β caspase-1 in cell lysate was performed by specific […] and anti caspase-1 p10 antibodies (FIGS. 3C, 3E-3F, 3I). Data are expressed as the mean±SD from three independent experiments Immunoblots shown are representative results from at least three independent experiments. *p<0.05 determined by Student's t-test.
# Liver tissue lysates or PECs were lysed in RIPA buffer (10 mM phosphate buffer pH 7.4, 150 mM NaCl, 1% NP-40, 0.5% sodium deoxycholate, 0.1% SDS) supplemented with complete protease inhibitor cocktail (Roche) and 2 mM dithiothreitol. Lysates were resolved in 4-12% Tris-glycine gradient gels (Invitrogen) and transferred to nitrocellulose (Invitrogen) by electro-blotting. The following antibodies were used: rabbit anti-caspase-1 p10 (SC-514, Santa Cruz), goat anti-mouse IL-1β (BAF401, R&D Systems), Rabbit antimouse HIF-1α (NB100-449, Novus Biologicals, Littleton, Colo.).
# [2] = tested on: IL-1β production in murine peritoneal macrophages (PECs); experiment: IL-1β secretion (ELISA) by primed, ATP-pulsed peritoneal macrophages (PECs); assay type: cell-based, mouse; settings: for IL-1β production in response to NECA and CGS21680: with PKA inhibition
# Protocol: (§2) FIGS. 1A-1J illustrate the finding that adenosine stimulates IL-1β production in NLRP3 inflammasome-dependent manner. Murine peritoneal macrophages (PECs) were obtained from wild type (WT) mice (FIGS. 1A-1D, 1F-1I), Il1r−/− (FIG. 1E) or Nlrp3−/−, ASC−/−, P2xr7−/−, or Caspase-1−/− mice (FIG. 1J) and were primed with LPS for 16 hours. FIG. 1A: This was followed by treatment for 1 hour with adenosine (Ad, 100 μM), adenosine deaminase inhibitor (EHNA, 10 μM), adenosine deaminase (ADA, 10 U ml^−1), ATP diphosphohydrolase (Apyrase, 10 U ml^−1), or erythro-9-(2-hydroxy-3-nonyl) adenine (EHNA, 10 μM) (FIGS. 1B, 1F-1J)). Pan adenosine agonist (NECA, 1 μM, 10 μM) (FIGS. 1C, 1E), or (FIGS. 1D, 1I) by NECA for 1 and 6 hours, and were then pulsed with ATP for 20 min. Enzyme-linked immunosobent assay (ELISA) of IL-1β, TNF-α, IL-10 and IFN-γ secretion were measured in cell supernatants after pulsing with ATP for 5 hours (FIGS. 1A, 1C-1E, 1J) or indicated time-course (FIGS. 1B, 1G-1I). LDH assay was performed after pulsing with ATP as indicated time-course (FIG. 1F). Data are expressed as the mean±SD from at least three independent experiments. *p<0.05 determined by Student's t-test.
# C57BL/6 mice were purchased from the National Cancer Institute. ASC−/−, Caspase-1−/−, Nlrp3−/− and P2xr7−/− mice have been described (Rock et al., 2010, Annu Rev Immunol. 28:321-42). A2ora2a flox/flox mice and LysMcre mice were purchased from Jackson Laboratories. HIF-1a flox/flox mice were kindly provided by Dr. Ruslan M Medzhitov (Yale University). 7- to 12-week-old males with a variety of genetic manipulations were used in most experiments. The number of mice in each experimental group was chosen based on previous experience with these experimental models. Mouse peritoneal macrophages (PECs) were isolated by peritoneal lavage 3 days after intraperitoneal injection of 4% thioglycollate solution (B2551, Fluka,). Cells were plated at the density of 3×10^6 cells in 12-well dishes and non-adherent cells were removed after 3 h. Cells primed overnight with 100 ng/ml LPS or 10 ng/ml Pam3CSK4 were treated with various chemicals and followed stimulation. Cells were cultured in DMEM medium complemented with 10% FBS, penicillin/streptomycin and L-glutamine. Mouse bone marrow derived macrophages were isolated from bone marrow cells, and were differentiated for 7 days in complete RPMI-1640 medium supplemented with 2 mM L-glutamine, 100 U/ml penicillin, 100 μg/ml streptomycin, 50 μM 2-mercaptoethanol (all from Invitrogen), 10% heat-inactivated FBS and 20 ng/ml M-CSF (PeproTech). Kupffer cells (KC) were isolated by the density gradient separation of Optiprep (Sigma), and then plates were gently washed and media was replenished after seeding cells for 2 hours to raise KC purity.
# Primed PECs were both pulsed for 20 min with 5 mM ATP or 10 μM nigericin, and left untreated until culture supernatants were collected. Secretion of IL-1β was determined by enzyme-linked immunoabsorbent assay (ELISA; R&D Systems).
# [3] = tested on: PECs; experiment: LDH release (cell death) assay in PECs; assay type: cell-based; settings: LPS + ATP treated PECs
# Protocol: as §2, with “Pan adenosine agonist (NECA, 1 μM, 10 μM) (FIGS. 1C, 1E), or (FIGS. 1D, 1I) by NECA for 1 and 6 hours, and were then pulsed with ATP for 20 min.” left out, “LDH assay was performed after pulsing with ATP as indicated time-course (FIG. 1F).” left out
# FIGS. 2A-2H illustrate the finding that adenosine mediates increase in IL-1β via the A2A receptor and amplifies signal 1 and signal 2 pathways. […] Data are expressed as the mean±SD from at least three independent experiments Immunoblots shown are representative results from at least three independent experiments. p<0.05 determined by Student's t-test.
# [4] = tested on: IL-1β production in murine peritoneal macrophages (PECs); experiment: IL-1β secretion (ELISA) by primed, ATP-pulsed peritoneal macrophages (PECs); assay type: cell-based, mouse; settings: CpG-B and ATP
# [5] = tested on: TNF-α, IL-10 and IFN-γ secretion; experiment: ELISA of other cytokines in PEC supernatants; assay type: cell-based, mouse; settings: LPS + ATP, adenosine deaminase inhibition
# Protocol: as §2
# [6] = tested on: Il1b and other genes in PECs; experiment: Quantitative real-time RT-PCR gene expression in PECs; assay type: cell-based, mouse; settings: LPS primed PECs, NECA
# Protocol: as §1
# FIGS. 9A-9H illustrate changes in expression of cytokines and tissue repair genes in peritoneal macrophages in response to adenosine agonists. LPS naive or LPS primed PECs were stimulated with LPS (100 ng ml^−1), CGS21680 (10 μM) or NECA (10 μM) at different time points as indicated. The cells were harvested and RNA isolated after each treatment, and the gene expression of ProIL-1β (Il1b) (FIG. 9A), IL-6 (Il6) (FIG. 9B), IL-4 (Il4) (FIG. 9C), TNF-α (tnfa) (FIG. 9D), TIMP-1 (Timp1) (FIG. 9E), VEGF (vegf) (FIG. 9F), PGK-1 (Pgk1) (FIG. 9G), GLUT-1 (Slc2a1) (FIG. 9H) quantified by real-time PCR using each specific gene primer set as listed. Data are expressed as the mean±SD from three independent experiments. *p<0.05 determined by Student's t-test.
# Total RNA was extracted using TRIZOL reagent (Invitrogen), and cDNA was generated with an oligo (dT) primer and the Superscript II system (Invitrogen, USA) followed by analysis using LightCycler 480 system (Roche). q-PCR was performed for Il1b using commercial primer-probe sets (Applied Biosystems Inc.) with DNA master Mix (Roche). Expression of GAPDH was used to standardize the samples, and the results were expressed as a ratio relative to control; q-PCR was performed for tnfa, 116, Txnip, Nlrp3, Hif1a, Timp1, using LightCycler 480 SYBR Green I master mix (Roche). Results were normalized based on the expression of β-actin.
# [7] = LPS-primed PECs pulsed with ATP
# [8] = in the absence of either LPS or ATP
molecule,measurement,setting,value
O=S(=O)(NCCNC/C=C/c1ccc(Br)cc1)c1cccc2cnccc12 [H-89],CGS21680 induced increase in LPS/ATP induced active caspase-1,[1],reduced
same,IL-1β production in response to NECA and CGS21680,[2],significantly reduced
Nc1ncnc2c1ncn2[C@@H]1O[C@H](CO)[C@@H](O)[C@H]1O [adenosine],IL-1β production,[2]; [7],significantly increased
same,IL-1β production,[2]; [8],did not result in any detectable IL-1β
"CCCCCC[C@@H]([C@@H](C)O)n1cnc2c(N)ncnc21 (racemic) [EHNA, erythro-9-(2-hydroxy-3-nonyl) adenine]","LDH (lactate dehydrogenase) release, cell death",[3],did not show correlation with the secretion of IL-1β
same,IL-1β production,[4],increase
same,production of IFN-γ,[5],increase
same,production of IL-10,[5],no effect
same,production of TNF-α,[5],reduction
same,"IL-1β production, time course","[2]; LPS + ATP, time course",sustained increase
same,IL-1β production,[2]; [7],significant increase
same,IL-1β production,[2]; [8],did not result in any detectable IL-1β
same,IL-1β production by LPS and ATP,"[2]; macrophages lacking caspase-1, NLRP3, ASC or P2x7 receptor",did not result in significant production of IL-1β
Nc1nc(NCCc2ccc(O)cc2)nc2nc(-c3ccco3)nn12 [ZM241385],CGS21680 induced increase in LPS/ATP induced active caspase-1,[1],inhibited
same,active (cleaved) caspase-1,[1],decreased
same,active (cleaved) caspase-1,[1]; listed as ZM241395,decreases
same,NECA-increased IL-1β production,[2]; LPS + ATP + NECA with receptor antagonist,inhibited
same,"IL-1β production stimulated by CGS21680, NECA and EHNA",[2]; LPS + ATP with antagonist,inhibited
same,IL-1β production,[2]; [7],block
"CCCC(=O)Nc1ncnc2c1ncn2[C@@H]1O[C@@H]2COP(=O)([O-])O[C@H]2[C@H]1OC(=O)CCC.[Na+] [db-cAMP, N6,2′-O-Dibutyryladenosine 3′,5′-cyclic monophosphate sodium salt]",up-regulation of Pro-IL-1β,"[1]; 6 hours, FIG. 3C",induced up-regulation
same,pro-IL1β protein levels,[1]; cells from A2AR-cKO mice,increase
COC(=O)c1ccc(O)c(NC(=O)COc2ccc(C34CC5CC(CC(C5)C3)C4)cc2)c1 [CAY10585],adenosine agonist induced Il1b expression,[6],significantly decrease
same,adenosine agonist induced IL-1β production,"[2]; LPS primed PECs, ATP pulse",significantly decrease
"PKI 14-22 amide (SGRTGRRNA-NH2; UniProt P61925 14-22, looked up, fragment)",IL-1β production in response to NECA and CGS21680,[2],significantly reduced
Nc1ncnc2c1ncn2C1CCCO1 (stereo not drawn) [SQ22536],CGS21680 induced increase in LPS/ATP induced active caspase-1,[1],reduced
same,increase in IL-1β induced by CGS21680 and EHNA,[2]; with adenylate cyclase inhibitor,block
B1,IL-1β production,[2]; [7],significant reduction
